Assay results published in ChEMBL document CHEMBL1156052, “Discovery of 1-[4-(3-chlorophenylamino)-1-methyl-1H-pyrrolo[3,2-c]pyridin-7-yl]-1-morpholin-4-ylmethanone (GSK554418A), a brain penetrant 5-azaindole CB2 agonist for the treatment of chronic pain” (J Med Chem, 2009).
Converted amounts (≈) assume the structure as drawn. The source made the active and inactive calls. No cut-off for these calls is given here.

How the values were obtained:
[1] = biological target: Melatonin receptor type 1A (Homo sapiens) (UniProt P48039); assay: Binding affinity to human ML1 receptor at 1 uM
Chain of Melatonin receptor type 1A (Homo sapiens) (P48039 whole entry): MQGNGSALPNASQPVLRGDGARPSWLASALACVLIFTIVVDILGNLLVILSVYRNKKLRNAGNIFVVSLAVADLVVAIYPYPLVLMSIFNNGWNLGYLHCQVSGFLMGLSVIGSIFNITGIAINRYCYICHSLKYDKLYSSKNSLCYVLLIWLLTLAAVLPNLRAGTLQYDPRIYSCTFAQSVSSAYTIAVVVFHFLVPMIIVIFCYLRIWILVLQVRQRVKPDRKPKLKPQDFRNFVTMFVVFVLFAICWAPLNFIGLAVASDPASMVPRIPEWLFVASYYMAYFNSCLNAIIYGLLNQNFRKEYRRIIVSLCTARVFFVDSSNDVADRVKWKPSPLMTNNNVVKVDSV

[2] = biological target: Muscarinic acetylcholine receptor M1 (Homo sapiens) (UniProt P11229); assay: Binding affinity to human muscarinic M1 receptor at 1 uM
Chain of Muscarinic acetylcholine receptor M1 (Homo sapiens) (P11229 whole entry): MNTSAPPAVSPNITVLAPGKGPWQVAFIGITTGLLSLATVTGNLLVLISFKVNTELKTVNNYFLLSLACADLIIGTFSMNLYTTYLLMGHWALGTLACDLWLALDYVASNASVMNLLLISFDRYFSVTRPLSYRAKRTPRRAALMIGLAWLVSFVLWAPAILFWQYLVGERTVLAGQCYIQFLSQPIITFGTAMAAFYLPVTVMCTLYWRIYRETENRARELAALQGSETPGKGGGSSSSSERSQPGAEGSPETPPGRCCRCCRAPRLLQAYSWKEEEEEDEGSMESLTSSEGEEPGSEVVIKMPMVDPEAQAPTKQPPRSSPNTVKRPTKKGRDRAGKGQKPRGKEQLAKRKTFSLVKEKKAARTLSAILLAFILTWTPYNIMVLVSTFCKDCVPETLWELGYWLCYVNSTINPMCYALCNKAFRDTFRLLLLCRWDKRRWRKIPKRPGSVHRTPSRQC

[3] = tested on: Rattus norvegicus; assay: Antihyperalgesic activity in complete Freund's adjuvant rat model of inflammatory pain assessed as reversal of hypersensitivity at 0.1 mg/kg, po administered as single dose measured after 1 hr; type: functional, organism-based; parameters: dose 0.1 mg/kg
[4] = tested on: Rattus norvegicus; assay: Antihyperalgesic activity in complete Freund's adjuvant rat model of inflammatory pain assessed as reversal of hyperalgesia at 1 mg/kg, po administered as single dose; type: functional, organism-based; parameters: dose 1 mg/kg
[5] = tested on: Rattus norvegicus; assay: Antihyperalgesic activity in complete Freund's adjuvant rat model of inflammatory pain assessed as reversal of hyperalgesia at 1 mg/kg, po administered as single dose in presence of 15 mg/kg, ip cannabinoid CB2 receptor antagonsit AM630; type: functional, organism-based
[6] = Drug level in blood of rat joint model of chronic pain at 3 mg/kg, po BID for 5 days; type: ADME, organism-based; parameters: dose 3 mg/kg, route oral; settings: read-out: Drug uptake
[7] = Drug level in rat blood at 130 mg/kg, po after 5 hrs; type: ADME, organism-based; parameters: dose 130 mg/kg, route oral; settings: read-out: Drug uptake
[8] = biological target: Cannabinoid receptor 1 (Homo sapiens, UniProt P21554); assay: Agonist activity at human recombinant cannabinoid CB1 receptor expressed in MMY23 Saccharomyces cerevisiae assessed as degradation of FDGlu to fluorescein after 24 hrs by spectrofluorimetry; type: functional
Chain of Cannabinoid receptor 1 (P21554 whole entry): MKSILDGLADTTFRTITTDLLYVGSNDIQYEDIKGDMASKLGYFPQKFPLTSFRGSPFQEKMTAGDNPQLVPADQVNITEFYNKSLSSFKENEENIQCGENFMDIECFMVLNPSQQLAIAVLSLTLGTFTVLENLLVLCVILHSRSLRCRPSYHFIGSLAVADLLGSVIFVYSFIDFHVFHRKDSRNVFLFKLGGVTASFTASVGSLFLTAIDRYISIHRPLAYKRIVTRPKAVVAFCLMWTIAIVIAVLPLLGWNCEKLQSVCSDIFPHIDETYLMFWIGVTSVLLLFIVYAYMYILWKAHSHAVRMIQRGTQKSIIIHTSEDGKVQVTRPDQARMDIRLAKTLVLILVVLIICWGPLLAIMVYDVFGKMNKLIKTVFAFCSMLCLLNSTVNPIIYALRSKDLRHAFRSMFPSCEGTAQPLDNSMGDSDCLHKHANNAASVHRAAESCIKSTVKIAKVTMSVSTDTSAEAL

[9] = biological target: T1, Cannabinoid receptor 2 (Homo sapiens, UniProt P34972); assay: Agonist activity at human recombinant cannabinoid CB2 receptor expressed in MMY23 Saccharomyces cerevisiae assessed as degradation of FDGlu to fluorescein after 24 hrs by spectrofluorimetry; type: functional
T1 sequence (P34972 whole entry): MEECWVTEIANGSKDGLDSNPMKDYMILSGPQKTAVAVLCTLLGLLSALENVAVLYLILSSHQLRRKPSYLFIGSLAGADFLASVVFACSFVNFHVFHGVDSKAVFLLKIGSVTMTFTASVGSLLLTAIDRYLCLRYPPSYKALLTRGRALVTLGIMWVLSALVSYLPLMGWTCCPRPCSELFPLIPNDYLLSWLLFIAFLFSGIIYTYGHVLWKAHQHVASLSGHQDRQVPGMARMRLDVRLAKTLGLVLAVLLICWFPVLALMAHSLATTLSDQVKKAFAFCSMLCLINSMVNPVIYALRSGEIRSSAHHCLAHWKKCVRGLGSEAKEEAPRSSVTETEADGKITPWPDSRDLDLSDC

[10] = biological target: Cytochrome P450 2D6 (Homo sapiens, UniProt P10635); assay: Inhibition of CYP2D6; type: ADME
Chain of Cytochrome P450 2D6 (P10635 whole entry): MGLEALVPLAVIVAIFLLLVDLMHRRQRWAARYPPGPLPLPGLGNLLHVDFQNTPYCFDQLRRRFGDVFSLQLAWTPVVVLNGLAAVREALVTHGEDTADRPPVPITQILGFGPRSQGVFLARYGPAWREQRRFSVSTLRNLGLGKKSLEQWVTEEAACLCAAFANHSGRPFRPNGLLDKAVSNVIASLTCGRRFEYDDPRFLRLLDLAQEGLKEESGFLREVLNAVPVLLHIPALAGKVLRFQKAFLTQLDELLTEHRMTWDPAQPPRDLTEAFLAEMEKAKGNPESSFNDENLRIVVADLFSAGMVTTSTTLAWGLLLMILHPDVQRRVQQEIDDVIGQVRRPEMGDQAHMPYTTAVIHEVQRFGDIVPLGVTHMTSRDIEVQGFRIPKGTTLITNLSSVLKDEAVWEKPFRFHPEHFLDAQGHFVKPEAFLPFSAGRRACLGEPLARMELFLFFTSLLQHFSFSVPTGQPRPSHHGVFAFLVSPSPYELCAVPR

[11] = Solubility in simulated intestinal fluid at pH 5; type: physicochemical
[12] = biological target: T1, Cannabinoid receptor 2; assay: Agonist activity at human recombinant cannabinoid CB2 receptor expressed in CHOK1 cells assessed as forskolin-induced cAMP production by luciferase assay; type: functional, cell-based, CHO-K1
[13] = biological target: 5-hydroxytryptamine receptor 2A (Homo sapiens) (UniProt P28223); assay: Binding affinity to 5HT2A receptor at 1 uM
Chain of 5-hydroxytryptamine receptor 2A (Homo sapiens) (P28223 whole entry): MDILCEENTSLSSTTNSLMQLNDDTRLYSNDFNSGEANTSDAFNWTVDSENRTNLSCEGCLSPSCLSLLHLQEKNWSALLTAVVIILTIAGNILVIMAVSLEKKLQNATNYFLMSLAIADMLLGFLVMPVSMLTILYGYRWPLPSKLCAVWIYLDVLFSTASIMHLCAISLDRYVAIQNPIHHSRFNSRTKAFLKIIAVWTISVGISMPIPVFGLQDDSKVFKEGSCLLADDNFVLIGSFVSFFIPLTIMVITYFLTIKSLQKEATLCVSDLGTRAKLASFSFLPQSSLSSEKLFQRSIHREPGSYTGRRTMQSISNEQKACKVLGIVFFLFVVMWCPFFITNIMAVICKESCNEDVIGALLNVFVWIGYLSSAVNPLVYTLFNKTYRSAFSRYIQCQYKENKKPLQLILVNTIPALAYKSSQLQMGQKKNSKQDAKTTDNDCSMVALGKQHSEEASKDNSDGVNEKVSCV

[14] = biological target: Beta-1 adrenergic receptor (Homo sapiens) (UniProt P08588); assay: Binding affinity to human beta-1 adrenergic receptor at 1 uM
Chain of Beta-1 adrenergic receptor (Homo sapiens) (P08588 whole entry, looked up): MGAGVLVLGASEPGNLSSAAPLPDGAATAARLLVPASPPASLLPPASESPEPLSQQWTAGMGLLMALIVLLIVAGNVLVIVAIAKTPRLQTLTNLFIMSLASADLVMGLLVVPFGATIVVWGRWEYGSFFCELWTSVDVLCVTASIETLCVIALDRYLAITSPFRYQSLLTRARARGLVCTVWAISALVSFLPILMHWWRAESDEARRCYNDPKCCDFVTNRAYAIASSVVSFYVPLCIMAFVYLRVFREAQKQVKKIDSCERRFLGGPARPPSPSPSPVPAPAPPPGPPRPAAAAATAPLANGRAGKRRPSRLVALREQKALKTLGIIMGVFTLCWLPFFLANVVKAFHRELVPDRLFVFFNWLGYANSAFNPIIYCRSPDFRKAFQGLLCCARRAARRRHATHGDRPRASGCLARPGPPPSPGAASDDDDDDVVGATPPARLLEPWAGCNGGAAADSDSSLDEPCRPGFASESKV

[15] = biological target: Type-1 angiotensin II receptor (Homo sapiens) (UniProt P30556); assay: Binding affinity to human AT1 receptor at 1 uM
Chain of Type-1 angiotensin II receptor (Homo sapiens) (P30556 whole entry): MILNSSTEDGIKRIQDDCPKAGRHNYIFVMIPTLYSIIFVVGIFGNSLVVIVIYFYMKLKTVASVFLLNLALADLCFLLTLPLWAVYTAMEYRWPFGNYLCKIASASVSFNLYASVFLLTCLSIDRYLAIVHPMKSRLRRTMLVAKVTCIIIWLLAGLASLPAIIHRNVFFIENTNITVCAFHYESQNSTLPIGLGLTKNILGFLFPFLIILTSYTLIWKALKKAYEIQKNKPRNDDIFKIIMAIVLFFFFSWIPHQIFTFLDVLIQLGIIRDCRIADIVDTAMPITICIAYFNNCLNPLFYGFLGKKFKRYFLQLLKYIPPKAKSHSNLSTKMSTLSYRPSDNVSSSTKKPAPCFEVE

[16] = species: Homo sapiens; assay: Selectivity ratio of EC50 for human recombinant cannabinoid CB1 receptor to EC50 for human recombinant cannabinoid CB2 receptor

Compound: Cn1ccc2c(Nc3cccc(Cl)c3)ncc(C(=O)N3CCOCC3)c21
- Activity [1]: < 10%
- Activity [2]: < 10%
- Activity [3]: Active
- Activity [4]: Active
- Activity [5]: Active
- concentration at 120 h [6]: 1.8 µM
- concentration at 5 h [7]: 12.3 µM
- EC50 [8]: 6.3 µM
- EC50 [9]: 0.005 µM
- IC50 [10]: 21 µM
- solubility [11]: 590 µg/mL (≈ 1590 µM)
- EC50 [12]: 0.008 µM
- Activity [13]: 11%
- Activity [14]: < 10%
- Activity [15]: < 10%
- Ratio EC50 [16]: 1200
